Laboratory results reported in patent publication US11464770B2, “Anticancer pharmaceutical composition” (NATIONAL CANCER CENTER, priority 2016, dated 2022).
Like-named read-outs stand apart in the source and are kept apart here.

Legend:
[1] = system: bladder cancer cell lines; test: Cell based assay, cell viability (CellTiter-Glo), bladder cancer cell lines; conditions: 72 hours treatment, 0 to 2 μM, CellTiter-Glo
Procedure, shortened: (§1)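 Following a 24 h pre-culture in plates, cells receive test compound (final 0 to 2 μM) for 72 hours. Luminescent quantitation of cellular ATP gives viability.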

[2] = system: prostate cancer cell lines (e.g. DU145/TXR); test: Cell based assay, cell viability (CellTiter-Glo), prostate cancer cell lines; conditions: Homo sapiens, 72 hours treatment, final concentration 0 to 2 μM
Procedure, shortened: as §1

[3] = system: pancreatic cancer cell lines (e.g. MIA PaCa-2); test: Cell based assay, cell viability (CellTiter-Glo), pancreatic cancer cell lines; conditions: Homo sapiens
Procedure, shortened: as §1

neuroblastoma cell lines = test: Cell based assay, cell viability (CellTiter-Glo), neuroblastoma cell lines; conditions: Homo sapiens; SH-SY5Y cell line
Procedure, shortened: as §1

melanoma cell lines = test: Cell based assay, cell viability (CellTiter-Glo), melanoma cell lines; conditions: Homo sapiens; LOX-IMVI cell line
Procedure, shortened: as §1

[4] = system: ovarian cancer cell lines; test: Cell based assay, cell viability (CellTiter-Glo), ovarian cancer cell lines; conditions: Homo sapiens; OVCAR-3 cells
Procedure, shortened: as §1

renal cancer cell lines = test: Cell based assay, cell viability (CellTiter-Glo), renal cancer cell lines; conditions: Homo sapiens; ACHN cells
Procedure, shortened: as §1

[5] = 5637 cells, read-out: IC50, bladder cancer cell line 5637
[6] = Homo sapiens, T-24, T24 cells, read-out: IC50, bladder cancer cell line T24
[7] = Homo sapiens, J82 cells, read-out: IC50, bladder cancer cell line J82
[8] = CWR22 cells, read-out: IC50, prostate cancer cell line CWR22
[9] = DU-145, DU145 cells, read-out: IC50, prostate cancer cell line DU145
[10] = LNcap cells, read-out: IC50, prostate cancer cell line LNcap
[11] = PC-3 cells, read-out: IC50, prostate cancer cell line PC-3
[12] = pancreatic cancer cell line AsPC-1, 72 hours, read-out: IC50, AsPC-1
[13] = pancreatic cancer cell line BxPC-3, 72 hours, read-out: IC50, BxPC-3
[14] = pancreatic cancer cell line CFPAC-1, 72 hours, read-out: IC50, CFPAC-1
[15] = pancreatic cancer cell line Capan-1, 72 hours, read-out: IC50, Capan-1
[16] = pancreatic cancer cell line Capan-2, 72 hours, read-out: IC50, Capan-2
[17] = pancreatic cancer cell line MIA PaCa-2, 72 hours, read-out: IC50, MIA PaCa-2
[18] = pancreatic cancer cell line PANC-1, 72 hours, read-out: IC50, PANC-1
[19] = DU-145, DU145/TXR cells, read-out: IC50, prostate cancer cell line DU145/TXR

Row | IC50 [1, 5] [nM] | IC50 [1, 6] [nM] | IC50 [1, 7] [nM] | IC50 [2, 8] [nM] | IC50 [2, 9] [nM] | IC50 [2, 10] [nM] | IC50 [2, 11] [nM] | IC50 [3, 12] [nM] | IC50 [3, 13] [nM] | IC50 [3, 14] [nM] | IC50 [3, 15] [nM] | IC50 [3, 16] [nM] | IC50 [3, 17] [nM] | IC50 [3, 18] [nM] | IC50 (neuroblastoma cell lines) [nM] | IC50 (melanoma cell lines) [nM] | IC50 [4] [nM] | IC50 (renal cancer cell lines) [nM] | IC50 [2, 19] [nM] | IC50 ([1]; Homo sapiens, KU-19-19 cells, read-out: IC50, bladder cancer cell line KU-19-19) [nM] | SMILES
1 | 1230 | 1120 | 1380 | 1590 | 1440 | 1640 | 1410 | > 2000 | > 2000 | > 10000 | > 2000 | > 2000 | 1180 | > 2000 | > 2000 | 1110 | 710 | > 2000 | 930 |  | CC(=O)c1c([S+]([O-])Cc2ccc(F)c(Cl)c2)[nH]c2c(Br)ccc(Cl)c2c1=O (stereo not drawn) [Compound 31, 3-acetyl-8-bromo-5-chloro-2-((3-chloro-4-fluorobenzyl)sulfinyl)quinolin-4(1H)-one]
2 | 1770 | 1570 | > 2000 | > 2000 | > 2000 | > 2000 | > 2000 | > 2000 | > 2000 | > 10000 | > 2000 | > 2000 | 1570 | > 2000 | > 2000 | 1570 | 1020 | > 2000 | 1560 |  | CC(=O)c1c([S+]([O-])Cc2cc(F)cc(F)c2)[nH]c2c(Br)ccc(Cl)c2c1=O (stereo not drawn) [Compound 46, 3-acetyl-8-bromo-5-chloro-2-((3,5-difluorobenzyl)sulfinyl)quinolin-4(1H)-one]
3 | > 2000 | 1540 | > 2000 | > 2000 | > 2000 | > 2000 | 1930 | > 2000 | > 2000 | > 10000 | > 2000 | > 2000 | 1690 | > 2000 | > 2000 | 1620 | 920 | > 2000 | 1390 |  | COc1cccc(C[S+]([O-])c2[nH]c3c(Br)ccc(Cl)c3c(=O)c2C(C)=O)c1 (stereo not drawn) [Compound 55, 3-acetyl-8-bromo-5-chloro-2-((3-methoxybenzyl)sulfinyl)quinolin-4(1H)-one]
4 | > 2000 | 1110 | > 2000 | 1560 | 1490 | > 2000 | 1640 | > 2000 | > 2000 | > 10000 | > 2000 | > 2000 | 1380 | > 2000 | > 2000 | 1060 | 840 | > 2000 |  |  | COc1cc(C[S+]([O-])c2[nH]c3c(Br)ccc(Cl)c3c(=O)c2C(C)=O)cc(OC)c1 (stereo not drawn) [Compound 59, 3-acetyl-8-bromo-5-chloro-2-((3,5-dimethoxybenzyl)sulfinyl)quinolin-4(1H)-one]

The remaining lines, values behind:

Row | SMILES | IC50 [1, 5] [nM] | IC50 [1, 6] [nM] | IC50 [1, 7] [nM] | IC50 [2, 8] [nM] | IC50 [2, 9] [nM] | IC50 [2, 10] [nM] | IC50 [2, 11] [nM] | IC50 [3, 12] [nM] | IC50 [3, 13] [nM] | IC50 [3, 14] [nM] | IC50 [3, 15] [nM] | IC50 [3, 16] [nM] | IC50 [3, 17] [nM] | IC50 [3, 18] [nM] | IC50 (neuroblastoma cell lines) [nM] | IC50 (melanoma cell lines) [nM] | IC50 [4] [nM] | IC50 (renal cancer cell lines) [nM] | IC50 [2, 19] [nM] | IC50 ([1]; Homo sapiens, KU-19-19 cells, read-out: IC50, bladder cancer cell line KU-19-19) [nM]
5 | CC(=O)c1c([S+]([O-])Cc2ccc(F)cc2F)[nH]c2c(Br)ccc(Cl)c2c1=O (stereo not drawn) [Compound 29, 3-acetyl-8-bromo-5-chloro-2-((2,4-difluorobenzyl)sulfinyl)quinolin-4(1H)-one] | 1330 | 1090 | > 2000 | 1770 | 1730 | 1550 | 1460 | > 2000 | > 2000 | > 10000 | > 2000 | > 2000 | 1190 | > 2000 | > 2000 | 1240 | 800 | > 2000 |  | 
6 | CC(=O)c1c([S+]([O-])Cc2ccc([N+](=O)[O-])cc2)[nH]c2c(Br)ccc(Cl)c2c1=O (stereo not drawn) [Compound 33, 3-acetyl-8-bromo-5-chloro-2-((4-nitrobenzyl)sulfinyl)quinolin-4(1H)-one] | > 2000 | 1030 | > 2000 | 1340 | 1630 | 1840 | 1580 | > 2000 | > 2000 | > 10000 | > 2000 | > 2000 | 1040 | > 2000 | > 2000 | 1130 | 1180 | > 2000 | 1340 | 
7 | CC(=O)c1c(S(=O)(=O)Cc2ccccc2)[nH]c2c(Br)ccc(Cl)c2c1=O [Compound 34, 3-acetyl-2-(benzylsulfonyl)-8-bromo-5-chloroquinolin-4(1H)-one] | > 2000 | > 2000 | > 2000 | > 2000 | > 2000 |  |  | > 2000 | > 2000 | > 10000 | > 2000 | > 2000 | 1990 | > 2000 | > 2000 | 1630 | 990 | > 2000 | 1590 | 
8 | CC(=O)c1c([S+]([O-])Cc2cc(Cl)ccc2Cl)[nH]c2c(Br)ccc(Cl)c2c1=O (stereo not drawn) [Compound 44, 3-acetyl-8-bromo-5-chloro-2-((2,5-dichlorobenzyl)sulfinyl)quinolin-4(1H)-one] | 1350 | 920 | 2070 | 1580 | 1600 | 1980 | 1490 | > 2000 | > 2000 | > 10000 | > 2000 | > 2000 | 1230 | > 2000 | > 2000 | 1640 | 840 | > 2000 | 1000 | 
9 | CC(=O)c1c([S+]([O-])Cc2cccc(F)c2)[nH]c2c(Br)ccc(Cl)c2c1=O (stereo not drawn) [Compound 50, 3-acetyl-8-bromo-5-chloro-2-((3-fluorobenzyl)sulfinyl)quinolin-4(1H)-one] | 1470 |  | > 2000 | > 2000 | 1770 | > 2000 | 1600 | > 2000 | > 2000 | > 10000 | > 2000 | > 2000 | 1450 | > 2000 | > 2000 | 1510 | 890 | > 2000 | 1280 | 
10 | CC(=O)c1c([S+]([O-])Cc2cc(C)on2)[nH]c2c(Br)ccc(Cl)c2c1=O (stereo not drawn) [Compound 51, 3-acetyl-8-bromo-5-chloro-2-(((5-methylisoxazol-3-yl)methyl)sulfinyl)quinolin-4(1H)-one] | 1070 | 890 | > 2000 | 1030 | 1240 | 1240 | 1360 | > 2000 | > 2000 | > 10000 | > 2000 | > 2000 | 760 | > 2000 | > 2000 | 1460 | 850 | > 2000 | 1120 | 
11 | CC(=O)c1c([S+]([O-])Cc2ccc(SC(F)(F)F)cc2)[nH]c2c(Br)ccc(Cl)c2c1=O (stereo not drawn) [Compound 56, 3-acetyl-8-bromo-5-chloro-2-((4-((trifluoromethyl)thio)benzyl)sulfinyl)quinolin-4(1H)-one] | > 2000 | 980 | 1460 | 1550 | 1420 | 1820 | 1300 | > 2000 | > 2000 | > 10000 | > 2000 | > 2000 | 1370 | > 2000 | > 2000 | 1090 | 1090 | > 2000 | 860 | 900
12 | CC(=O)c1c([S+]([O-])Cc2ccc([N+](=O)[O-])cc2)[nH]c2c(Cl)ccc(Cl)c2c1=O (stereo not drawn) [Compound 57, 3-acetyl-5,8-dichloro-2-((4-nitrobenzyl)sulfinyl)quinolin-4(1H)-one] | > 2000 | 1790 | > 2000 | > 2000 | > 2000 | > 2000 | > 2000 | > 2000 | > 2000 | > 10000 | > 2000 | > 2000 | > 2000 | > 2000 | > 2000 | > 2000 | > 2000 | > 2000 | > 2000 | 
13 | CC(=O)c1c([S+]([O-])Cc2ccc(C(C)(C)C)cc2)[nH]c2c(Br)ccc(Cl)c2c1=O (stereo not drawn) [Compound 60, 3-acetyl-8-bromo-2-((4-(tert-butyl)benzyl)sulfinyl)-5-chloroquinolin-4(1H)-one] | > 2000 | 1720 | > 2000 | > 2000 | > 2000 | > 2000 | 1820 | > 2000 | > 2000 | > 10000 | > 2000 | > 2000 | > 2000 | > 2000 | > 2000 | 1670 | > 2000 | > 2000 | 1260 | 
